This is an account of results in patent US11485728B2, “Small molecules for the treatment of autoimmune diseases and cancer” (Athos Therapeutics, Inc., priority 2020, dated 2022).

Where two headings read alike, the source gives them in different places.

The nature of data set [1]: pH solubility. The data set is classed as physicochemical. The note with it: aqueous solution, thermodynamic from solid, read-out: Solubility Concentration. The method, then:
Saturated solutions of selected compounds were prepared at pH 1, 4, 6.5, and 7.4. The pH conditions selected are within the extremes of the normal physiological pH of the human gastrointestinal tract. Solubility testing of drug under different pH conditions was carried out by adding an excess amount of drug to each pH condition initiating with 1 mg/mL and then confirmed saturation by visual observation of undissolved material. The saturated solutions are continuously shaking at 6,000 rpm for 24 hours at room temperature. The saturated solutions were filtered through Millipore 0.22 um PVDF hydrophilic filters and subjected to HPLC to evaluate the solubility concentration of the test compound. Filtered saturated solutions were diluted with acetonitrile:water (50:50) within the calibration standard curve. A calibration curve of test compound contained […] standards at concentrations 0.25, 0.5, 1.0, 5.0, 10, 25, 50 and 100 μg/mL were prepared in acetonitrile:water (50:50).
Compounds were measured in filtered saturated solution using an Agilent 1260 Infinity II Lab LC Series HPLC (1260 quat pump, 1260 vial autosampler, ICC column oven, 1260 DAD WR detector). The chromatographic separation was achieved by Phenomenex Synergi Polar RP column (150×4.6 mm, 4 μm, 80 Å). The mobile phase was gradient (A: water with 0.1% trifluoroacetic acid, B: acetonitrile with 0.1% trifluoroacetic acid; A/B (99:1) from 0 minute; to A/B (1:99) from 0 to 10 minutes; A/B (1:99) from 10 to 12 minutes; to A/B (99:1) from 12 to 12.1 minutes; A/B (99:1) from 12.1 to 13 minutes) pumped at a flow rate of 1 mL/min. The detection of the eluent was monitored at 254 nm. The column oven was set at 35° C. Injection volume was 10 μL, unless otherwise specified. Data acquisition and peak integrations were obtained by OpenLAB CDS Version 2.4 (Agilent) operating with Windows (Microsoft).
Solubility is the ability of a drug to dissolve in an aqueous solution under different pH conditions. It is defined as the amount of substance that passes into solution to achieve a saturated solution at a constant temperature and pressure. The purpose of this study was to determine the solubility of selected compounds under different pH conditions and determine whether an oral solution is feasible or a suspension would be better to support the drug formulation process for pre-clinical studies. The pH conditions selected were within the extremes of the normal physiological pH of the human gastrointestinal tract, such as pH 1, pH 4, pH 6.5, and pH 7.4.

Data set [2] can be described thus: Formulation visual stability (DMA/PG/PEG 300/water). The data set is classed as physicochemical. As to conditions: 25° C., 10-11 mg/mL in DMA/PG/PEG 300/Water. The method, then:
All formulations were conducted with FDA approved excipients and with high purity material such as USP grade quality. Formulation stability of test articles are performed using HPLC purity method described within analytical section. This formula may be used for oral administration of the compounds described herein; […]. Since these compounds have high solubility in lower pH as described in the solubility study section, the intervenous delivery is performed with 100% phosphate buffer solution of pH 6.5 allowing up to 7 mg/mL concentration. The formulated test articles can be store at 4° C. Prior to dosing, it should be warmed and vortexed for about 1 min to make a homogenous solution. If needed, filter through 0.2 μM syringe filter to maintain clean and sterile.

Data set [3] deals with C57BL/6 mice. Description: MTD studies in mice. The data set is classed as in vivo. As to conditions: 50 mg/kg daily oral.
Data set [4] deals with CaCo-2 intestinal epithelial cells. Description: Transepithelial resistance (TEER) of CaCo-2 cells exposed to TNFα and IFNγ. The format is cell-based. The method, then: The intestinal epithelial barrier plays a central role in the pathophysiology of multiple chronic inflammatory and autoimmune diseases. Intestinal epithelial cells provide a physical barrier that interacts with immune cells and protects internal cavities from mucosal bacterial and antigen intrusion. Intestinal inflammation during IBD is associated with disruption of this barrier and cytokines like TNFα play important roles.
At confluence TEER is measured and TNFα along with compounds are added as described above. Compound-induced TEER is determined after correction with measurement prior to treatment.

`COc1cc2c(NC3CCN(C(C)C)CC3)nc(N3CCC(F)(F)CC3)nc2cc1OCCCN1CCCC1` [Compound 400, 2-(4,4-difluoropiperidin-1-yl)-N-(1-isopropylpiperidin-4-yl)-6-methoxy-7-(3-(pyrrolidin-1-yl)propoxy)quinazolin-4-amine, reference compound]: the solubility at 24 h in data set [1] (pH 1, simulated gastric fluid) was 22.8 mg/mL; in data set [1] (pH 4, aqueous buffer) it was 13.2 mg/mL; in data set [1] (pH 6.5, aqueous buffer), 7.51 mg/mL; in data set [1] (pH 7.4, aqueous buffer), 0.011 mg/mL. Also, the Appearance entry in data set [2] (30 min), in data set [2] (1 h), in data set [2] (5 h), in data set [2] (24 h) and in data set [2] (7 d) was “clear” each time. Also, the “effects in weight change (MTD studies)” value in data set [3] is listed as “not cause any effects in weight change”. Moreover, in data set [4] (TNFα 10 ng/ml, IFNγ 100 ng/ml, compounds 1 μM, 48 hrs of treatment), the epithelial barrier resistance result was “increased intestinal permeability”. Further, the TEER result in data set [4] (vs control group) is listed as “−”.
